Experimental data from US9504671B2, “Pharmaceutical compositions of spiro-oxindole compound for topical administration and their use as therapeutic agents” (Xenon Pharmaceuticals Inc., priority 2010, dated 2016).
Read-outs that look alike come from different tables or passages of the source.

Experiments:
[1] = solubility studies of COMPOUND A (UV spectrophotometry at 312 nm); format: physicochemical
Excerpt: The spiro-oxindole compound of the invention, particularly, COMPOUND A, is relatively lipophilic and has poor water solubility.
Attempts to improve the solubility of COMPOUND A for use in a topical pharmaceutical composition, preferably as an ointment, were undertaken using a variety of solubilization techniques. The aim was to conduct a thorough investigation of the use of various pharmaceutically acceptable excipients to maximize the solubility of COMPOUND A. A series of solubility studies, which were performed using standard solubility testing techniques, was therefore carried out to identify proper excipient(s) and/or excipient combinations for achieving the target dosage strength for COMPOUND A. The solubility of COMPOUND A in these studies was determined by UV spectrophotometry using COMPOUND A's UV absorbance wavelength at 312 nm.

[2] = tested on: CFA-induced inflammatory pain model; assay: CFA induced chronic inflammatory pain, von Frey mechanical paw withdrawal threshold; format: in vivo, rats; conditions: fourth day, 30 minutes post-dosing
Description: In this test, mechanical hyperalgesia is assessed with electronic von Frey filament by means of Electrovonfrey anesthesiometer (Model 2290, IITC Life Science, Woodland Hills, Calif.). Following a full week of acclimatization to the vivarium facility, 150 μL of the “Complete Freund's Adjuvant” (CFA) emulsion (CFA suspended in an oil/saline (1:1) emulsion at a final concentration of 0.5 mg/mL) was injected subcutaneously into the plantar surface of the left hind ankle joint of rats under light isoflurane anaesthesia. Animals were allowed to recover from the anaesthesia and the baseline mechanical nociceptive thresholds of all animals were assessed one week after the administration of CFA. All animals were habituated to the experimental chambers for 20 minutes on the day of the experiment. The animals were then randomly assigned to 5 different test groups including a vehicle control group and 4 pharmaceutical compositions with COMPOUND A at 1%, 2%, 4% and 8% (w/w) groups. After baseline measurements, animals were anaesthetized under isoflurane, shaved at the site of application, and then dosed by application of 50 mg test compositions on the entire ipsilateral hind ankle and foot. Animals were then placed in Plexiglas tubes for 30 minutes to prevent early removal/ingestion of drug. Test compositions were applied twice a day for 3 days. On the fourth day, immediately after application, animals were placed in tubes for 15 minutes and then removed and placed in Plexiglas enclosures for 15 minutes prior to making paw withdrawal measurements. Von Frey withdrawal thresholds were measured as the mean of several independent determinations made within 1-2 minutes of each other on the affected paw of each animal 30 minutes post-dosing. The time point used was previously determined to show the highest analgesic effect for each test composition.
(§1) The response thresholds of animals to tactile stimuli were measured using the Model 2290 Electrovonfrey anesthesiometer (IITC Life Science, Woodland Hills, Calif.). Animals were placed in an elevated Plexiglas enclosure set on a mire mesh surface. After 15 minutes of accommodation, a von Frey hair was applied perpendicularly to the plantar surface of the ipsilateral hind paws of the animals with sufficient force, measured in grams, to elicit a crisp response of the paw. The response indicated a withdrawal from the painful stimulus and constituted the efficacy endpoint.

sodium channel = assay: guanidine influx assay disclosed in WO 06/110917; format: cell-based; conditions: read-out: IC50, inhibition of ion flux through a sodium channel
Excerpt: The IC50 (“Inhibitory Concentration—50%”) is a measure of the amount of compound required to achieve 50% inhibition of ion flux through a sodium channel, over a specific time period, in an assay of the invention.

[3] = tested on: CCI-induced neuropathic pain model; assay: time course of efficacy in neuropathic pain model, Chronic Constriction Injury, von Frey; format: in vivo, Sprague-Dawley rats
Description: Neuropathic pain is characterized by spontaneous pain and stimulus-evoked allodynia and hyperalgesia. Pharmaceutical compositions of the invention were evaluated in Chronic Constriction Injury model using Sprague-Dawley rats as described below.
An approximately 3 cm incision was made through the skin and the fascia at the mid thigh level of a rat's left hind leg using a no. 10 scalpel blade. The left sciatic nerve was exposed via blunt dissection through the biceps femoris with care to minimize haemorrhagia. Four loose ligatures were tied along the sciatic nerve using four chromic gut sutures at intervals of 1 mm to 2 mm apart. The tension of the loose ligatures was tight enough to induce slight constriction of the sciatic nerve when viewed under a dissection microscope at a magnification of 4 fold. As sham controls, the right sciatic nerve was exposed and manipulated in the same manner as described above, except sutures were not tied onto the nerve. Antibacterial ointment was applied directly into the wound, and the muscle was closed using sterilized sutures. Betadine® was applied onto the muscle and its surroundings, followed by skin closure with surgical clips.
A painful neuropathy was allowed to develop for at least 14 days in the ipsilateral leg as determined by lower paw withdrawal thresholds to a mechanical stimulus. Only those with significant hyperalgesia, as determined by reduced threshold of paw withdrawal to the von Frey filament, measured in grams, were enrolled in the study.
as §1, with “Plexiglass” for “Plexiglas”, “endpoint. The force (in grams) required to elicit a crisp withdrawal response was recorded before dosing as a baseline measurement, and at multiple time points post-dosing.” for “endpoint.”
Three days prior to baseline measurement, animals were anaesthetized under isoflurane and the whole of the ipsilateral hind legs, including the upper sciatic notch thigh area, ankle and foot, was shaved. The animals were then randomly assigned to one of 4 different test groups including a vehicle control group, a 5% (w/v) Lidocaine (Xylocaine®), and 2 pharmaceutical compositions of the invention comprising COMPOUND A at 4% (w/w) containing either 5% or 10% Transcutol® P. After baseline measurement, 100 mg of the test composition was applied on the entire shaved area. The animals were then placed in plastic tubes for at least 15 minutes, to prevent early removal/ingestion of drug. Subsequently, animals were placed in the Plexiglas enclosure 15 minutes before von Frey measurement at the respective time points. Von Frey withdrawal thresholds were measured as the mean of several independent determinations made within 1-2 minutes of each other on the affected paw of each animal at 0.5, 1 and 2 hours post dosing.

## O=C1N(Cc2ccc(C(F)(F)F)o2)c2ccccc2[C@]12COc1cc3c(cc12)OCO3 [COMPOUND A, (S)-1′-{[5-(trifluoromethyl)furan-2-yl]methyl}spiro[furo[2,3-f][1,3]benzodioxole-7,3′-indol]-2′(1′H)-one]
[1]; aqueous solution with pH adjusted to 2, aqueous buffer, pH 2, 7.4 and 12, read-out: solubility on varying the pH of a solution
  solubility: < 5 µg/mL
[1]; water, read-out: water solubility
  solubility: < 5 µg/mL
[2]; 1% (w/w) topical composition
  von Frey mechanical paw withdrawal threshold, percent CFB: did not demonstrate an observable increase
[2]; 2% (w/w) topical composition
  von Frey mechanical paw withdrawal threshold, percent CFB: statistically significant increases
[2]; 4% (w/w) topical composition
  von Frey mechanical paw withdrawal threshold, percent CFB: statistically significant increases
[2]; 8% (w/w) topical composition, 50 mg twice a day for 3 days
  von Frey mechanical paw withdrawal threshold, percent change from baseline (CFB): +45.1%
[2]; 8% (w/w) topical composition
  von Frey mechanical paw withdrawal threshold, percent CFB: statistically significant increases
Sodium channel
  IC50: < 1000 nM
[3]; 4% (w/w) in 5% Transcutol P composition, 100 mg applied, 0.5 hours post-dosing
  paw withdrawal threshold, percent mean change from baseline (CFB): +26.3%
[3]; 4% (w/w) in 5% Transcutol P composition, 1 hour post-dosing
  paw withdrawal threshold, percent mean change from baseline (CFB): +18.1%
[3]; 4% (w/w) in 10% Transcutol P composition, 100 mg applied, 0.5 hours post-dosing
  paw withdrawal threshold, percent mean change from baseline (CFB): +33.8%
[3]; 4% (w/w) in 10% Transcutol P composition, 1 hour post-dosing
  paw withdrawal threshold, percent mean change from baseline (CFB): +26.7%
[3]; 4% (w/w) in 10% transcutol composition, from 0.5 hour
  duration of analgesic effects post-dosing: up to 2 hours
